Legend:
[1] = Photostabilization of Avobenzone and OMC, solution on quartz (Experiment 6-2); format: physicochemical; settings: Avobenzone 3%, OMC 7.5%
Text: Experiment 6-2 compares the compounds at 3% to photostabilize Avobenzone at 3% and OMC at 7.5%. The results are shown in Table 2 and graphically in FIG. 20.

[2] = Voltammetry, redox potential with respect to Ag/AgCl reference electrode; format: physicochemical; settings: vs Ag/AgCl
Description: For these experiments, dimethylsulfoxide (DMSO) and tetrabutylammonium perchlorate (TBAP) were obtained from Sigma Aldrich and used as received. […] Platinum wires (BASi MW-1032) of diameter 0.5 mm were employed for both the working electrode (WE) and counter electrode (CE). A dry-solvent tolerant Ag/AgCl reference electrode (RE) was obtained from eDAQ (Model ET072). The WE and CE were cleaned prior to each by first rinsing in acetone, then DI, followed by soaking in ˜50% aqueous H2SO4 for 10-20 minutes and then a final DI rinse. The RE electrode was cleaned prior to each use by an acetone rinse followed by DI rinse. Each sample solution was prepared in a fresh glass vial which had been rinsed with DI then acetone and allowed to dry Immediately after preparing each solution, it was purged with pure N2 gas for 15-20 minutes with the electrodes in place. Voltammetry data was collected shortly afterwards with an EG&G PAR 263 A Potentiostant/Galvanostat operated using a Labview-based control program. Scans were performed at various potential ranges between +2.0V and −2.0V (vs Ag/AgCl); all scan rates were constant at 200 mV/s.

[3] = reference value; cited from earlier work
[4] = Protoporphyrin IX fluorescence lifetime quenching (singlet excited state); format: physicochemical; settings: PPIX; for bimolecular quenching rate constant for singlet excited state quenching (in words): acetonitrile; for Singlet Quenching Rate Constant: acetonitrile solutions at room temperature
Description: Fluorescence lifetime measurements are a convenient way to measure singlet state quenching by stabilizers. Protoporphyrin IX decay traces were recorded in the absence and presence of compound I(a)(1) and alkoxy […] (FIG. 3). […] The collected data shown in FIG. 3 were used to determine the bimolecular quenching rate constant for singlet excited state quenching by the compounds. The quenching rate constant may be directly extracted from the slope of the plot of the inverse fluorescence lifetime vs. the concentration of the two compounds (FIG. 4). […] The biomolecular quenching rate constants for singlet excited state (kq^S) and triplet excited state (kq^T) quenching of PPIX by stabilizers in acetonitrile solutions at room temperature is shown in Table 4, as well and the Stern-Volmer rate constants.

[5] = Stern-Volmer analysis of singlet oxygen suppression; format: physicochemical
Text: The singlet oxygen phosphorescence intensity in the absence of the compound of Formulas I(a)(1), II(a)(1), II(d)(1), II(e)(1), or a mixture of II(b)(1) and II(c)(1) (I0) divided by the singlet oxygen phosphorescence intensity in the presence of compounds of Formula I/II(I) was plotted against the Formula I/II concentration (FIG. 16). From the slope of these plots (Stern-Volmer constant) and the lifetime of the quenched excited state, the bimolecular quenching constant can be extracted. If the excited state, which is quenched by the compound of Formula I(a)(1) (which causes a reduction in singlet oxygen production) is the singlet excited state of protoporphyrin IX then, using the previously measured fluorescence lifetime in acetonitrile (if =12.7 ns) a quenching rate constant of 2.4×10^9 M^−1 s^−1 is estimated. […] The rate constant derived from singlet oxygen phosphorescence quenching (FIG. 16) is only half of the more directly derived rate constant from fluorescence quenching, which could be caused by the difference in solvents or by some contribution of protoporphyrin triplet quenching by the compound of Formula I(a)(1). […] This rate constant is 5 times higher than the directly measured rate constant by laser flash photolysis (6.1×10^6 M^−1 s^−1). […] It must be noted that protoporphyrin IX triplet lifetime of ˜1 μs in air saturated DMSO was only estimated based on the directly measured triplet lifetime in air saturated acetonitrile and considering the different oxygen concentration in DMSO compared to acetonitrile. If necessary, the protoporphyrin IX triplet lifetime in air saturated DMSO can easily be measured by laser flash photolysis. The complex reaction mechanism is summarized in Scheme 1 (FIG. 17).
The biomolecular quenching rate constants for singlet excited state (kq^S) and triplet excited state (kq^T) quenching of PPIX by stabilizers in acetonitrile solutions at room temperature is shown in Table 4, as well and the Stern-Volmer rate constants.
Stern-Volmer constants are in direct correlation with the singlet oxygen suppression efficiency. Table 4 (above) summarizes the Stern-Volmer constants and PPIX singlet and triplet state quenching rate constants. Three different ranges of Stern-Volmer constants were observed. […] For compounds I(a)(1), II(d)(1), and the mixture of II(b)(1) and II(c)(1), Stern-Volmer constants of about 30 M^−1 were observed. For these three stabilizers, high PPIX singlet quenching rate constants (about 5×10^9 M^−1 s^−1) but low triplet quenching rate constants (<10^9 M^−1 s^−1) were observed. Here, the singlet oxygen suppression is probably dominated by PPIX singlet excited state quenching by these stabilizers. […] Because of the very high PPIX triplet quenching rate constant by compound II(a)(1) (3.2×10^9 M^−1 s^−1), the singlet oxygen suppression is probably dominated by triplet quenching. […] These kinetic parameters may include the MePPIX triplet and singlet lifetimes in air saturated and oxygen free CDCl3 and the bimolecular quenching constant by oxygen.

[6] = Protoporphyrin IX triplet state quenching by laser flash photolysis; format: physicochemical; settings: PPIX, acetonitrile solutions at room temperature
Description: To investigate if triplet states of protoporphyrin IX are quenched by the two compounds, laser flash photolysis experiments were performed. In these experiments, a deoxygenated acetonitrile solution of protoporphyrin IX is excited with short laser pulses from a Nd-YAG laser (355 nm, 5 ns pulse width). Difference absorption kinetic traces were recorded at different observation wavelengths (300 to 800 nm) and from these a transient absorption spectrum was constructed (FIG. 5A). […] In addition, two bands are observed at 320 and 440 nm, which are assigned to the triplet-triplet absorption of protoporphyrin IX. […] Triplet absorption kinetics at 440 nm may be utilized to obtain triplet quenching rate constants by the stabilizers. Triplet decay traces at 440 nm were recorded in the presence of different amounts of the alkoxy […], Formulas […])(1), and the mixture of II(b)(1) and II(c)(1). The decay traces were fitted to a first-order kinetics. The plot of these pseudo-first-order rate constants (inverse decay lifetime) vs. the concentration of the two compounds gives directly the bimolecular triplet quenching rate constant from the slope (FIG. 6). The biomolecular quenching rate constants for singlet excited state (kq^S) and triplet excited state (kq^T) quenching of PPIX by stabilizers in acetonitrile solutions at room temperature is shown in Table 4, as well and the Stern-Volmer rate constants.

[7] = test system: visible light-induced free radicals in pig skin; test: Visible light-induced free radicals in ALA-treated pig skin by Electron Spin Resonance; settings: 1% reference
Description: A conjugated fused tricycle compound according to Formula II(a)(1) reduced visible light-induced free radicals in skin by up to 89% and did so in a dose-dependent manner (FIG. 21). The study was conducted using pig skin, which is recognized for its similarity to human skin. Topical application of aminolevulinic acid (ALA) induced the skin to over-produce the endogenous photosensitizer Protoporphyrin IX (PPIX). Solutions of Formula II(a)(1) at different concentrations were then topically applied to the ALA treated skin after which it was exposed to bright green light. The resulting free radical content of the skin was then measured by Electron Spin Resonance (ESR). Studies conducted in solution have shown that Formula II(a)(1) suppresses singlet oxygen production by PPIX. […] The mechanisms of action of Formula II(a)(1) and Tocopherol are different: the former prevents free radicals from forming; the latter scavenges free radicals after they appear.

[8] = UV and visible light absorption spectra of stabilizers; format: physicochemical; settings: acetonitrile
Description: UV and visible light absorption spectra were recorded to investigate to what extent each stabilizer itself absorbs UV light. […] Protoporphyrin IX has weak absorption bands above 450 nm, where the two compounds are transparent (FIG. 2). The compound with the oxygen bridge (Formula II(d)(1)) caused a bathocromic shift of the UV absorption of the lowest energy band. The compound with the sulfur bridge (Formula II(e)(1)) shifted the lowest energy band further into the visible region.

[9] = 0.01 M in 0.1 M TBAP in DMSO, 200 mV/s

% UVA ([1]; stabilizer level 1.0)	% UVB ([1]; stabilizer level 1.0)	% UVA ([1]; stabilizer level 2.0)	% UVB ([1]; stabilizer level 2.0)	% UVA ([1]; stabilizer level 4.0)	% UVB ([1]; stabilizer level 4.0)	Compound	other results
82.1%	87.8%	87.8%	92.1%	91.0%	94.7%	Ethylhexyl dimethyl 2,2′-anthracene-9,10-diylidenebis(cyanoacetate) [Formula Y-1-22]	–
85.5%	90.0%	91.0%	93.8%	90.8%	93.9%	CCCCC(CC)COC(=O)C(C#N)=C1c2ccccc2Sc2ccccc21 (centres unmarked) [Formula Y-1-15, Ethylhexyl cyano thioxanthenylidene acetate]	–
88.6%	91.8%	88.6%	91.1%	94.5%	95.3%	CCCCC(CC)COC(=O)C(C#N)=C1c2ccccc2Oc2ccccc21 (centres unmarked) [Formula Y-1-9, Ethylhexyl cyano xanthenylidene acetate]	–
81.3%	87.8%	84.2%	90.1%	87.3%	91.5%	CCCCC(CC)COC(=O)C(C#N)=C(c1ccccc1)c1ccc(OC)cc1 (centres unmarked) [SolaStay S1, ethylhexyl methoxycrylene, reference compound]	λmax [8]: 336 nm; extinction coefficient (molar absorptivity) ([8]; at λmax): 13,200 M −1 cm −1

More lines, now with the values behind:

Compound	% UVA ([1]; stabilizer level 1.0)	% UVB ([1]; stabilizer level 1.0)	% UVA ([1]; stabilizer level 2.0)	% UVB ([1]; stabilizer level 2.0)	% UVA ([1]; stabilizer level 4.0)	% UVB ([1]; stabilizer level 4.0)	other results
COC(=O)C(C#N)=c1c2ccccc2c(=C(C#N)C(=O)OC)c2ccccc12 [Formula II(b)(1)]	–	–	–	–	–	–	first (or only) redox couple, oxidation peak [2, 9]: +54 mV; first (or only) redox couple, reduction peak [2, 9]: −545 mV; first (or only) redox couple, redox potential ([2]; estimated from the peaks): −245 mV
O=C(c1ccccc1)c1ccccc1 [benzophenone]	–	–	–	–	–	–	quantum yield of singlet oxygen generation (reference) [3]: 0.35
COC(=O)C(C#N)=C1c2ccccc2Sc2ccccc21 [Formula II(e)(1)]	–	–	–	–	–	–	bimolecular quenching rate constant for singlet excited state quenching (in words) [4]: high quenching rate constant; Singlet Quenching Rate Constant [4]: 0.65 10^9 M^−1s^−1; Stern-Volmer Constant of ^1O2 Suppression [5]: 1.2 M⁻¹; singlet oxygen suppression (in words) [5]: only negligible singlet oxygen suppression; Triplet Quenching Rate Constant [6]: 0.0012 10^9 M^−1s^−1; second redox couple, oxidation peak (large) [2]: +434 mV; first (or only) redox couple, oxidation peak [2, 9]: −782 mV; first (or only) redox couple, reduction peak [2, 9]: −969 mV; second redox couple, reduction peak [2, 9]: −1409 mV; first (or only) redox couple, redox potential ([2]; estimated from the peaks): −875 mV; second redox couple, redox potential ([2]; estimated from the peaks): −1347 mV; second redox couple, oxidation peak ([2]; the small peak where two are given): −1286 mV
Cc1c(C)c2c(c(C)c1O)CCC(C)(CCCC(C)CCCC(C)CCCC(C)C)O2 (centres unmarked) [Tocopherol, reference compound]	–	–	–	–	–	–	Free Radicals (a.u.) ([7]; ALA-treated pig skin): 1955 ± 366 a.u.; Free Radicals (%) ([7]; relative to 0 mM control): 78%
COC(=O)C(C#N)=C1c2ccccc2Oc2ccccc21 [Formula II(d)(1)]	–	–	–	–	–	–	bimolecular quenching rate constant for singlet excited state quenching (in words) [4]: high quenching rate constant; Singlet Quenching Rate Constant [4]: 3.7 10^9 M^−1s^−1; Triplet Quenching Rate Constant [6]: 0.14 10^9 M^−1s^−1
